Literature values as cited in patent publication US20250000823A1, “METHODS AND COMPOSITIONS FOR TREATING CONDITIONS ASSOCIATED WITH CENTRAL HYPOVENTILATION” (APNIMED, INC. (DELAWARE), priority 2021, published 2025).

Tested on: patients with OHS
Settings: acetazolamide alone

In the case of `CC(=O)Nc1nnc(S(N)(=O)=O)s1` [Acetazolamide, N-(5-Sulfamoyl-1,3,4-thiadiazol-2-yl)acetamide], the alveolar ventilation is listed as “improve alveolar ventilation”.
